Assays:
human M A1AT = biological target: T1, human M A1AT (Homo sapiens, UniProt P01009); experiment: A1AT cell secretion assay using HEK-M cells (ELISA); assay type: cell-based; settings: 10 μM, 48 h
T1 construct: expressed in transfected cells; host or cells: HEK-M cells (transfected HEK-EBNA)
Procedure: (§1) HEK-M cells, a human embryonic kidney cell line stably transfected with M A1AT, were plated into 96 well plates (3.0×10^5 cells/ml with 200 μl of media/well) overnight at 37° C. in a humidified atmosphere containing 5% CO2. Following incubation cells were washed with 200 μl serum-free media three times and media was replaced with serum-free media containing vehicle, 10 μM suberanilohydroxamic acid (SAHA) or a compound of Examples 1-16 in replicates of six for 48 h in a 37° C. incubator in a final volume of 200 μl. At the end of the incubation step the supernatants were removed from the wells, centrifuged at 1000×g at 4° C. for 10 min and were assayed for human A1AT levels by ELISA (Human Serpin A1/α1 antitrypsin duo set ELISA, R& D Systems, DY1268) per manufacturer's instructions.
(§2) Briefly, a 96 well plate was coated with human A1AT capture antibody overnight at room temperature (1:180 dilution from stock, 100 μl final volume/well). The capture antibody was then removed and wells washed three times with 300 μl wash buffer (0.05% Tween 20 in PBS) and then 200 μl reagent diluent ([…]) was incubated in each well for 1 h at room temperature. Diluted samples, standards (125, 250, 500, 1000, 2000, 4000 and 8000 pg/ml A1AT) or blanks were then added to each well in duplicate and the plates were covered with a plate sealer and left at room temperature for 2 h. At the end of the sample incubation step, samples were removed and all wells washed as previously and 100 μl detection antibody (1:180 dilution from stock) was added to each well and incubated for a further 2 h at room temperature. Following incubation with detection antibody, supernatant was removed and wells were washed as previously and 100 μl streptavidin-HRP solution (1:200 dilution from stock) was added to each well for 20 min in the dark. After which, 50 μl stop solution (2M H2SO4) was added and optical density (OD) of each well was read at 450 nm with 570 nm blank subtracted from each well using a microplate reader. A 4 parameter logistic curve was constructed using GraphPad Prism 7 and A1AT concentrations were determined in each sample by interpolation from a standard curve and multiplying by the appropriate dilution factor.
The amount of human M A1AT secreted from transfected HEK-EBNA cells into the media was measured by ELISA. SAHA at 10 μM was used a positive control for all in vitro A1AT secretion experiments.

human Siiyama A1AT = biological target: T2, human Siiyama A1AT (Homo sapiens, UniProt P01009, S77F); experiment: A1AT cell secretion assay using HEK-Siiyama cells (ELISA); assay type: cell-based; settings: 48 h; for secretion of Siiyama A1AT from HEK-Siiyama cells: 1 or 10 μM
T2 construct: expressed in transfected cells; host or cells: HEK-Siiyama cells (transfected HEK-EBNA)
Procedure: as §1, with “HEK-Siiyama” for “HEK-M”, “the human Siiyama A1AT gene,” for “M A1AT,”, “Example 1 (at 1 and 10 μM)” for “Examples 1-16”, “eight” for “six”, “A1/α1-antitrypsin” for “A1/α1 antitrypsin”
as §2, with “At the end of the sample incubation step, samples were removed and all wells washed as previously and 100 μl detection antibody (1:180 dilution from stock) was added to each well and incubated for a further 2 h at room temperature. Following incubation with detection antibody, supernatant was removed and wells were washed as previously and 100 μl streptavidin-HRP solution (1:200 dilution from stock) was added to each well for 20 min in the dark.” left out
The amount of human Siiyama A1AT secreted from transfected HEK-EBNA cells into the media was measured by ELISA. […]

human Z A1AT [1] = biological target: T3, human Z A1AT (Homo sapiens, UniProt P01009, E366K); experiment: Circulating human Z A1AT levels in huZ mouse (plasma ELISA); assay type: in vivo; design: expressed in transfected cells; host or cells: transgenic huZ mouse (line Z11.03, C57Bl/6), expressed in liver, measured in plasma; settings: 5, 15 or 50 mg/kg twice a day by oral gavage for 14 days; plasma days 12, 13 and 14 vs basal
Source text: The huZ mouse (also referred to as the PiZZ mouse) is a transgenic mouse strain that contains multiple copies of the Z variant of the human A1AT gene, developed by two separate groups (Dycaico et al Science (1988) 242:1409-12) and Carlson et al J. Clin Invest (1989) 83:1183-90). HuZ mice are on a C57Bl/6 background and express the human Z A1AT protein in liver tissue. The mice used in this study are from the progeny of Carlson and colleagues (transgenic line Z11.03). […]
HuZ mice (n=4/group; male or female) with basal human Z A1AT plasma levels of between 200-600 μg/ml were treated with either vehicle or the compounds of Examples 1 or 17 at 5, 15 or 50 mg/kg twice a day by oral gavage for 14 consecutive days. […] Human Z A1AT levels in mouse plasma samples were measured by ELISA (Human Serpin A1/α1 antitrypsin duo set ELISA, R& D Systems, DY1268) per manufacturer's instructions.
Briefly, a 96 well plate was coated with human A1AT capture antibody overnight at room temperature (1:180 dilution from stock, 100 μl final volume/well). […] After which, 50 μl stop solution (2M H2SO4) was added and optical density (OD) of each well was read at 450 nm with 570 nm blank subtracted from each well using a microplate reader. […]

human Z A1AT [2] = biological target: T3, human Z A1AT; experiment: A1AT cell secretion assay using HEK-Z cells (ELISA); assay type: cell-based; design: expressed in transfected cells; host or cells: HEK-Z cells (transfected HEK-EBNA); settings: 48 h, supernatant ELISA
Procedure: HEK-Z cells, a human embryonic kidney cell line stably transfected with the human Z A1AT gene, were plated into 96 well plates (3.0×10^5 cells/ml with 200 μl of media/well) overnight at 37° C. in a humidified atmosphere containing 5% CO2. Following incubation cells were washed with 200 μl serum-free media three times and media was replaced with treatments in quadruplicate using serum-free media containing vehicle, 10 μM suberanilohydroxamic acid (SAHA) or the compounds of Examples 1-18 (at concentrations of 10, 33, 100 and 333 nM) for 48 h in a 37° C. incubator in a final volume of 200 μl. At the end of the incubation step the supernatants were removed from the wells, centrifuged at 1000×g at 4° C. for 10 min and were assayed for human A1AT levels by ELISA (Human Serpin A1/α1-antitrypsin duo set ELISA, R& D Systems, DY1268) per manufacturer's instructions.
as §2, with “At the end of the sample incubation step, samples were removed and all wells washed as previously and 100 μl detection antibody (1:180 dilution from stock) was added to each well and incubated for a further 2 h at room temperature. Following incubation with detection antibody, supernatant was removed and wells were washed as previously and 100 μl streptavidin-HRP solution (1:200 dilution from stock) was added to each well for 20 min in the dark.” left out
The amount of human A1AT secreted from transfected HEK-EBNA cells into the media was measured by ELISA. […]

T1 sequence (P01009 25-418): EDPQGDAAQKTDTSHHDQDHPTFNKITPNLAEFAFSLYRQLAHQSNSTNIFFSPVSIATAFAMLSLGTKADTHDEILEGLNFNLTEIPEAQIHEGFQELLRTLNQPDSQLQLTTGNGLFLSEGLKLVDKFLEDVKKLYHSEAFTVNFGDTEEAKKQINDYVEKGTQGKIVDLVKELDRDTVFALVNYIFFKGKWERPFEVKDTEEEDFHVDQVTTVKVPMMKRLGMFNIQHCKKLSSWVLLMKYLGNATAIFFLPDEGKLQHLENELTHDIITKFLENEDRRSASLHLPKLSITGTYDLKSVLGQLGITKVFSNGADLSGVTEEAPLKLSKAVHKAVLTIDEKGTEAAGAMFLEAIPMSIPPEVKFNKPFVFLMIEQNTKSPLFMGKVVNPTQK
T3 sequence (P01009 25-418 E366K): as the sequence (P01009 25-418) above, with E342K counted along it
T2 sequence (P01009 25-418 S77F): as the sequence (P01009 25-418) above, with S53F counted along it

O=C(O)C1CCN(S(=O)(=O)c2cccc3cccnc23)CC1 [Example 1, 1-(Quinolin-8-ylsulfonyl)piperidine-4-carboxylic acid]
secretion of human M A1AT from HEK-M cells (human M A1AT): did not lead to an increase
secretion of Siiyama A1AT from HEK-Siiyama cells (human Siiyama A1AT): did not stimulate secretion
secretion of human Z A1AT compared to baseline levels in huZ mice (human Z A1AT [1]): stimulated secretion

O=C(O)C1CCN(S(=O)(=O)c2cccc(Cl)c2)CC1 [Example 3, 1-((3-Chlorophenyl)sulfonyl)piperidine-4-carboxylic acid]
secretion of human M A1AT from HEK-M cells (human M A1AT): did not lead to an increase

O=C(O)C1CCN(S(=O)(=O)c2cccc(Cl)c2Cl)CC1 [Example 4, 1-((2,3-Dichlorophenyl)sulfonyl)piperidine-4-carboxylic acid]
secretion of human M A1AT from HEK-M cells (human M A1AT): did not lead to an increase

O=C(O)C1CCN(S(=O)(=O)c2ccccc2C(F)(F)F)CC1 [Example 10, 1-((2-(Trifluoromethyl)phenyl)sulfonyl)piperidine-4-carboxylic acid]
secretion of human M A1AT from HEK-M cells (human M A1AT): did not lead to an increase

O=C(O)C1CCN(S(=O)(=O)c2ccc(C(F)(F)F)cc2)CC1 [Example 12, 1-((4-(Trifluoromethyl)phenyl)sulfonyl)piperidine-4-carboxylic add]
Median A1AT increase over vehicle at 300 nM (human Z A1AT [2]): 200

O=C(O)[C@H]1CCN(S(=O)(=O)c2ccccc2C(F)(F)F)C1 [Example 15, (S)-1-((2-(Trinfluoromethyl)phenyl)sulfonyl)pyrrolidine-3-carboxylic acid]
Median A1AT increase over vehicle at 300 nM (human Z A1AT [2]): 230

O=C(O)[C@H]1CCCN(S(=O)(=O)c2ccccc2C(F)(F)F)C1 [Example 17, (S)-1-((2-(Trinfluoromethyl)phenyl)sulfonyl)piperidine-3-carboxylic acid]
secretion of human M A1AT from HEK-M cells (human M A1AT): did not lead to an increase
secretion of Siiyama A1AT from HEK-Siiyama cells (human Siiyama A1AT): did not stimulate secretion
Median A1AT increase over vehicle at 300 nM (human Z A1AT [2]): 310
secretion of human Z A1AT compared to baseline levels in huZ mice (human Z A1AT [1]): stimulated secretion

O=C(O)[C@@H]1CCCN(S(=O)(=O)c2ccccc2C(F)(F)F)C1 [Example 18, (R)-1-((2-(Trifluoromethyl)phenyl)sulfonyl)piperidine-3-carboxylic acid]
secretion of human M A1AT from HEK-M cells (human M A1AT): did not lead to an increase

O=C(CCCCCCC(=O)Nc1ccccc1)NO [SAHA, suberanilohydroxamic acid, reference compound]
Siiyama A1AT secretion from HEK-Siiyama cells (positive control) (human Siiyama A1AT; 10 μM): stimulated an increase
